The results in this text go back to patent US20070042967A1, “Proteaseome inhibitors for the treatment of herpesviridae infected individuals” (priority 2002, published 2007).

In one series the test system is IL-8. The series can be described thus: Extracellular IL-8 in supernatants of AD169-infected HELF (ELISA). Format: cell-based, human. To be noted: increasing amounts; data not shown. How it is done:
(§1) Next, we wondered whether MG132 is able to reduce the immune modulatory activity of HCMV. Therefore we measured the levels of extracellular IL-6, IL-8, and RANTES in the supernatants of mock-infected and AD-169-infected HELF (m.o.i. =1) following culture in the presence or absence of increasing amounts of MG132. In parallel, surface expression of ICAM-1 (CD54) was measured by flow cytometric analysis. As expected infection of HELF with AD 169 increased secretion of IL-6, EL-8 and RANTES (data not shown) as well as surface expression of ICAM-1 over time (FIGS. 14A and B). While virus-induced secretion of IL-6, IL-8, and RANTES was not inhibited by the proteasome inhibitor, but, in some experiments even increased (data not shown), virus-induced surface expression of ICAM-1 was prevented (FIG. 14). […] For comparison, GCV had no influence on virus-induced ICAM-1 expression, but rather sustained its density on the cell surface (FIG. 14, last columns).
(§2) For measurement of IL-6 and EL-8 cell culture supernatants were collected from mock-infected and AD169-infected HELF cultivated in the presence or absence of MG132 or GCV (m.o.i.=1) immediately after adsorption of the virus (day 0) as well as at day 1, 2, 3 and 5 p.i. and tested for IL-6 and EL-8 by Immulite™ semiautomatic. ELISA analysis as described by the manufacturer (DPC Biermann, Germany).
Background: An ELISA detects its analyte on a solid surface through an enzyme-linked reagent.

Another series relates to HSV1 strain K. The series can be described thus: HSV1 replication in HELF (CPE count). To be noted: 0.2 to 0.01 μg/ml (0.42 to 0.021 μM). It is filed as cell-based, Herpes Simplex Type 1. How it is done:
(§3) Confluente HELF monolayers in 24 well tissue culture plates were infected with HSV1 strain K or HSV2 at a M.O.I. of 0.001. Virus adsorption was allowed for 1 h at 37° C. After removing the viral inoculate, cells were overlayed with MEM/E, 1% Methocel and incubated for two days at 37° C. in a 5% CO2 atmosphere. MG-132 at the indicated concentrations was added into the medium after adsorption. CPEs were quantified by light microscopy. MG132 had no effect on HSV1 (FIG. 6) and HSV2 (not shown) replication in HELF.

For the next series, the system named is HSV2. In words: HSV2 replication in HELF (CPE count). Format: cell-based, Herpes Simplex Type 2. To be noted: not shown. As for the experimental part:
as §3

For the next series, the system named is RANTES. The series can be described thus: Extracellular RANTES in supernatants of AD169-infected HELF (ELISA). It is filed as cell-based, human. To be noted: increasing amounts; data not shown. How it is done: as §1
Cell culture fluids were tested for RANTES using the ELISA KIT from R&D System, Germany, following the manufacturers instructions. […] Surface CD54 amounts were analysed using a FACScalibur analyser and cellquest software (Becton Dickinson, Germany). Data were calculated as A mean fluorescence intensities of CD54 and isotype control antibodies (=specific mean fluorescence intensity, MFI).

A further series has as its system IL-6. In words: Extracellular IL-6 in supernatants of AD169-infected HELF (ELISA). Format: cell-based, human. To be noted: increasing amounts; data not shown. As for the experimental part: as §1, §2
The test system of the next series is HELF. The series can be described thus: Toxicity for HELFs. To be noted: 0.2 μg/ml. Format: cell-based, human. As for the experimental part: Granulocyte/monocyte progenitor like HL-60 cells (ACC CCL 240) were grown in RPMI 1640 medium supplemented with 10% foetal calf serum (FCS, both from Biochrom, Germany and certified to be endotoxin free). Permissive human embryonal lung fibroblasts (HELF) were grown as monolayer in Dulbecco's modified Eagle's medium (BioWhittaker Europa, Belgium) containing 2.0% FCS. Virus stocks of HCMV strain AD169. of laboratory-derived ganciclovir (GCV)-resistant viruses XbaF 4-3-1 and 1117′ 3-1-2 (both are kindly provided from K. K. Biron, Burroughs Wellcome Colo.), HSV 1, strain K, and HSV 2, strain DG (both are patients isolates from the strain collection of this institute) were prepared from the supernatant of infected cell cultures and stored in liquid nitrogen. For standard plaque reduction assays as well as for experiments with immunoblot analysis HELF were seeded into 25 cm^2 cell culture flasks. For preparation of cytosolic and nuclear extracts cells were seeded into 100 cm^2 culture flasks. Generally, confluent monolayers were infected at an multiplicity of infection (m.o.i.) of 0.0002 for standard plaque reduction assay and a m.o.i. of 1 for immunoblot analysis, for preparation of cytosolic and nuclear extracts as well as for measurement of cytokine, chemokine and adhesion molecules in cell culture supernatant. […]

Where a SMILES comes first, the peptide text is derived from it. The star is where a group is joined. Cbz = O=C(OCc1ccccc1)*

For `CC(C)C[C@@H](C=O)NC(=O)[C@H](CC(C)C)NC(=O)[C@H](CC(C)C)NC(=O)OCc1ccccc1` [MG-132, N-carbobenzoxy-L-leucinyl-L-leucinyl-L-leucinal] (Cbz-Leu-Leu-Leu-aldehyde), in the series on IL-8, the “virus-induced secretion of IL-8” value is reported as “not inhibited”. Further, in the series on HSV1 strain K, the “effect on HSV1 replication in HELF” value is on record as “no effect”. For the same compound, the “effect on HSV2 replication in HELF” value in the series on HSV2 is listed as “no effect”. In the series with RANTES, the “virus-induced secretion of RANTES” value is listed as “not inhibited”. Moreover, the “virus-induced secretion of IL-6” value in the series on IL-6 is given as “not inhibited”. In addition, the “toxicity for HELFs” value in the series with HELF was “non-toxic”.
